The values that follow come from patent US20190150447A1, “CONDENSED HETEROCYCLIC COMPOUND” (Sumitomo Chemical Company, Limited, priority 2015, published 2019).

Type in all cases: in vivo
Test [1] relates to cabbage moth (Plutella xylostella). In words: Test Example 3: foliar spray on cabbage seedling against cabbage moth. Particulars: 120 h, spray 20 mL/seedling on cabbage, second instar larvae, after 5 days, read-out: mortality of insects. As to the method:
(§1) The test compound is made to a formulation according to the method described in the Formulation Example 5, and thereto is added water containing 0.03 v/v % of a spreader to prepare a diluted solution containing a prescribed concentration of the test compound.
The diluted solutions are sprayed into the cabbage (Brassicae oleracea) seedling (on the developmental stage of the second to third true leaf) that is planted in a container in a ratio of 20 mL/seedling. Thereafter, the stem and leaf thereof is cut out and then is installed into the container that is covered with the filter paper. Five (5) heads of cabbage moth (Plutella xylostella) at the second instar larval stages are released into the cup. After 5 days, the surviving insects are counted, and the mortality of insects is calculated by the following equation.
Morality (%)={1−the number of the surviving insects/5}×100

The subject of test [2] is common house mosquito (Culex pipiens pallens). In words: Test Example 6: larvae released into diluted solution, common house mosquito. Particulars: 24 h, last instar larvae in diluted solution, after 1 day, read-out: mortality of insects. As to the method:
(§2) The test compound is made to a formulation according to the method described in the Formulation Example 5, and thereto is added water to prepare a diluted solution containing a prescribed concentration of the test compound.
Thirty (30) heads of last instar larvae of common house mosquito (Culex pipiens pallens) are released into the diluted solutions and after 1 day, the life and dead of common house mosquito is examined, and the mortality of insects is calculated by the following equation.
Mortality of insects (%)=((Number of dead insects/Numboer of test insects)×100

The test system of test [3] is brown planthopper (Nilaparvata lugens). In words: Test Example 2: foliar spray on rice seedling against brown planthopper. Particulars: 144 h, spray 10 mL/seedling on rice, 3rd instar larvae, after 6 days, read-out: mortality of insects. Here is the method:
as §1
Rice (Oryza sativa) seedling (on the developmental stage of the second true leaf) is planted in a plastic cup, and the diluted solutions are sprayed into the seedling in a ratio of 10 mL/seedling. Thereafter, 20 heads of 3rd instar larvae of brown planthopper (Nilaparvata lugens) are released onto the rice leaves. After 6 days, the morality is calculated by the following equation.
Morality (%)={1−the number of the surviving insects/20}×100

Test [4] concerns cotton aphid (Aphis gossypii). In words: Test Example 1: foliar spray on cucumber seedling against cotton aphid. To be noted: 500 ppm; spray 10 mL/seedling on cucumber; all stages of life; after 5 days. As to the method:
The test compounds is made to a formulation according to the method described in the Formulation Example 5, and thereto is added water containing 0.03 v/v % of a spreader to prepare a diluted solution containing a prescribed concentration of the test compound. Cucumber (Cucumis sativus) seedling (on the developmental stage of the second true leaf) is planted in a plastic cup, and approximately 30 heads of cotton aphid (Aphis gossypii) (all stages of life) are released onto the leaves of the cucumber. After 1 day, the diluted solutions were sprayed into the seedling in a ratio of 10 mL/seedling. After 5 days, the number of the surviving insects is examined and the controlling value is calculated by the following equation. Controlling value (%)={1−(Cb×Tai)/(Cai×Tb)}×100 wherein the symbols in the equation represent the following descriptions. Cb: Number of the test insects in untreated group; Cai: Number of the surviving insects at the time of the investigation in untreated group; Tb: Number of the test insects in treated group; Tai: Number of the surviving insects at the time of the investigation in treated group; Here the “untreated group” represents a group where the similar treatment procedure to that of the treated group except not using the test compound is done.

Test [5] relates to German cockroach (Blattella germanica). Nature of the test: Test Example 5: filter paper/sucrose bait test against German cockroach. Particulars: 144 h, 0.7 mL on filter paper, male, after 6 days, read-out: mortality of insects. As to the method: as §2
The bottom of the plastic cup having 5.5 cm diameter is matted with the same size of a filter paper, and 0.7 mL of the diluted solution is added dropwise to the filter paper, and 30 mg sucrose as bait is placed in the cup uniformly. Two (2) heads of male German cockroach (Blattella germanica) are released into the plastic cup, and the cup is covered with the lid. After 6 days, the life and death of German cockroach is examined and the number of died insects is counted, and the mortality of insects is calculated by the following equation.
(§3) Mortality of insects (%)=(Number of dead insects/Number of test insects)×100

Test [6] has as its system housefly (Musca domestica). In words: Test Example 4: filter paper/sucrose bait test against housefly. Particulars: 0.7 mL on filter paper, female adult, after 24 hours, read-out: mortality of insects. Here is the method: as §2
The bottom of the plastic cup having 5.5 cm diameter is matted with the same size of a filter paper, and 0.7 mL of the diluted solution is added dropwise to the filter paper, and 30 mg sucrose as bait is placed in the cup uniformly. Ten (10) heads of female adult housefly (Musca domestica) are released into the plastic cup, and the cup is covered with the lid. After 24 hours, the life and death of housefly is examined and the mortality of insects is determined. The mortality of insects is calculated by the following equation.
as §3

The mortality is the share of the test organisms that died.

With `CCS(=O)(=O)c1ccc(-n2cncn2)nc1-c1nc2cc(C(F)(F)F)ncc2n1C` [Present compound 1], the mortality at 500 ppm in test [1], in test [3], in test [5] and in test [6] was 100% throughout. In addition, the mortality at 3.5 ppm in test [2] is 91%. Moreover, in test [4], the controlling value is given as 100%.
